Laboratory results reported in US20250282796A1, “PENEM ANTIBACTERIALS AGAINST MYCOBACTERIAL PATHOGENS AND D,D- AND L,D TRANSPEPTIDASES” (The Johns Hopkins University, priority 2022, published 2025).
In brackets after ≈: the same amount, converted by molar mass. Entries after “also recorded” stand apart in the source; their conditions may differ. Read-outs that look alike come from different tables or passages of the source.

Assays:
[1] = tested on: Mtb H37Rv; test: MIC broth microdilution assay against Mtb H37Rv (with and without clavulanate); assay type: cell-based, Mycobacterium tuberculosis; conditions: for MIC: Mycobacterium tuberculosis, H37RV, 336 h, read-out: MIC Mtb H37Rv; for increase of MIC relative to T405: Mtb H37Rv without clavulanate
[2] = tested on: Mab ATCC 19977; test: MIC broth microdilution assay against Mab ATCC 19977; assay type: cell-based, Mycobacteroides abscessus; conditions: for MIC: Mycobacteroides abscessus, read-out: MIC Mab ATCC 19977
[3] = target: T1, DacB2 (Mycobacterium tuberculosis, UniProt I6Y204); test: DacB2 adduct formation and stability comparison by intact-protein UPLC-HRMS; assay type: binding; conditions: for DacB2 adduct formation: 20 μM drug, 1 h
T1 construct: made in house
T1 sequence (I6Y204 28-291): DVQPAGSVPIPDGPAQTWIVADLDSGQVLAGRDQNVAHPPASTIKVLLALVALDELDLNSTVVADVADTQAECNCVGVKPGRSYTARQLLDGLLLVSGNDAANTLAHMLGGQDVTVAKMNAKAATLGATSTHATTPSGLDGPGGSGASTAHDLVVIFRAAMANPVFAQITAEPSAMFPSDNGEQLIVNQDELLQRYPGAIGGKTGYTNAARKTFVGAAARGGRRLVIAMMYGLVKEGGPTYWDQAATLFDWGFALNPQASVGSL

[4] = target: T2, LdtMt2 (Mycobacterium tuberculosis, UniProt I6Y9J2); test: LdtMt2 adduct formation by intact-protein UPLC-HRMS; assay type: binding; conditions: penem 20 μM, 1 h, 25 mM HEPES pH 7.0, 20° C.
T2 construct: made in house
T2 sequence (I6Y9J2 56-408): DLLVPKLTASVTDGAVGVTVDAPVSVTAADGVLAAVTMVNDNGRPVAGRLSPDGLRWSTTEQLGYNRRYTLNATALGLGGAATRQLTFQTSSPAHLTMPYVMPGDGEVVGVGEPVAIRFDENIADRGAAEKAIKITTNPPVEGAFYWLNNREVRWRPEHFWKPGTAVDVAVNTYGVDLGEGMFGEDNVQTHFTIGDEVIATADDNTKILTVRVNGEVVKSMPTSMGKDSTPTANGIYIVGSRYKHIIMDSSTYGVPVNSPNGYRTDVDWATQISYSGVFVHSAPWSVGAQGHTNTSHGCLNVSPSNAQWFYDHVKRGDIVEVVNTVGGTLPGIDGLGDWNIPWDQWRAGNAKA

[5] = without clavulanate, Middlebrook 7H9, 37° C., 14 d
[6] = ATCC19977, Middlebrook 7H9, 30° C., 72 h
[7] = 24 h after removal of free drug, 20° C.

| Structure (SMILES) | MIC [1, 5] [µg/mL] | MIC [2, 6] [µg/mL] | MIC Mtb H37Rv with Clavulanate (5 μg/ml) ([1]; Middlebrook 7H9, 37° C., 14 d) [µg/mL] | further results |
| --- | --- | --- | --- | --- |
| C[C@@H](O)[C@H]1C(=O)N2C(C(=O)O)=C(S[C@@H]3CCN(C4CCOCC4)C3)S[C@H]12 [Compound T432, (5R,6S)-6-((R)-1-hydroxyethyl)-7-oxo-3-(((R)-1-(tetrahydro-2H-pyran-4-yl)pyrrolidin-3-yl)thio)-4-thia-1-azabicyclo[3.2.0]hept-2-ene-2-carboxylic acid] | 4 | 4 (≈ 9.99 µM) | – | – |
| C[C@@H](O)[C@H]1C(=O)N2C(C(=O)O)=C(S[C@@H]3CN[C@H](C(=O)N(C)C)C3)[C@H](C)[C@H]12 [Meropenem, reference compound] | 8 | – | 0.5 | MIC Mtb H37Rv [1, 5]: 8 µg/mL; DacB2 adduct formation ([3]; 20° C., pH 7.0): fully reacts with DacB2; DacB2 adduct stability (in words) [3, 7]: stable after removal of drug for 24 h; DacB2 adduct stability (in words) ([3]; 24 h after removal of free drug, 20° C., listed as meropenem): remained completely bound; also recorded: fully bound |
| C[C@@H](O)[C@H]1C(=O)N2C(C(=O)O)=C(SC3CCNCC3)S[C@H]12 [Compound T427, (5R,6S)-6-((R)-1-hydroxyethyl)-7-oxo-3-(piperidin-4-ylthio)-4-thia-1-azabicyclo[3.2.0]hept-2-ene-2-carboxylic acid] | – | – | 0.5 | increase of MIC relative to T405 [1]: two-fold; MIC [1]: 1 µg/mL; MIC ([2]; ATCC19977, 72 h): 4 µg/mL (≈ 12.1 µM) |
| C[C@@H](O)[C@H]1C(=O)N2C(C(=O)O)=C(SC3CN(c4nc5ccccc5n4C)C3)S[C@H]12 [Compound T418, (5R,6S)-6-((R)-1-hydroxyethyl)-3-((1-(1-methyl-1H-benzo[d]imidazol-2-yl)azetidin-3-yl)thio)-7-oxo-4-thia-1-azabicyclo[3.2.0]hept-2-ene-2-carboxylic acid] | 2 | 64 (≈ 148 µM) | 0.5 | increase of MIC relative to T405 [1]: four-fold |
| C[C@@H](O)[C@H]1C(=O)N2C(C(=O)O)=C(S[C@H]3CCNC3)S[C@H]12 [Compound T426, (5R,6S)-6-((R)-1-hydroxyethyl)-7-oxo-3-(((S)-pyrrolidin-3-yl)thio)-4-thia-1-azabicyclo[3.2.0]hept-2-ene-2-carboxylic acid] | 0.5 | 2 (≈ 6.32 µM) | 0.25 | MIC against Mab ([2]; Mab ATCC 19977): 1 µg/mL (≈ 3.16 µM); covalent LdtMt2 adduct formed [4]: formed a +86 Da LdtMt2 adduct; also recorded: fragmentation to a M+86 Da 3-hydroxybutyryl group; DacB2 adduct formation ([3]; 20° C., pH 7.0): formed intact adducts; DacB2 adduct stability (in words) [3, 7]: remained completely bound; also recorded: fully bound; also recorded: stable for at least 24 h after drug removal |
| C[C@@H](O)[C@H]1C(=O)N2C(C(=O)O)=C(SC3CN(C4=NCCCS4)C3)S[C@H]12 [Compound T420, (5R,6S)-3-((1-(5,6-dihydro-4H-1,3-thiazin-2-yl)azetidin-3-yl)thio)-6-((R)-1-hydroxyethyl)-7-oxo-4-thia-1-azabicyclo[3.2.0]hept-2-ene-2-carboxylic acid] | 2 | 16 (≈ 39.8 µM) | 0.5 | increase of MIC relative to T405 [1]: two dilutions |
| CCN1CC[C@@H](SC2=C(C(=O)O)N3C(=O)[C@H]([C@@H](C)O)[C@H]3S2)C1 [Compound T431, (5R,6S)-3-(((R)-1-ethylpyrrolidin-3-yl)thio)-6-((R)-1-hydroxyethyl)-7-oxo-4-thia-1-azabicyclo[3.2.0]hept-2-ene-2-carboxylic acid] | 4 | 4 (≈ 11.6 µM) | – | – |
| C[C@@H](O)[C@H]1C(=O)N2C(C(=O)O)=C(SCCN=CN)C[C@H]12 [Imipenem, reference compound] | – | 8 (≈ 26.7 µM) | – | MIC Mab ATCC 19977 ([2]; Middlebrook 7H9, 30° C., 72 h): 8 µg/mL (≈ 26.7 µM) |
| C[C@@H](O)[C@H]1C(=O)N2C(C(=O)O)=C(SC3CN(C4CCOCC4)C3)S[C@H]12 [Compound T430, (5R,6S)-6-((R)-1-hydroxyethyl)-7-oxo-3-((1-(tetrahydro-2H-pyran-4-yl)azetidin-3-yl)thio)-4-thia-1-azabicyclo[3.2.0]hept-2-ene-2-carboxylic acid] | 4 | 4 (≈ 10.3 µM) | – | – |
| C[C@@H](O)[C@H]1C(=O)N2C(C(=O)O)=C(SCC3CNC3)S[C@H]12 [Compound T428, (5R,6S)-3-((azetidin-3-ylmethyl)thio)-6-((R)-1-hydroxyethyl)-7-oxo-4-thia-1-azabicyclo[3.2.0]hept-2-ene-2-carboxylic acid] | 0.5 | 8 (≈ 25.3 µM) | 0.25 | covalent LdtMt2 adduct formed [4]: formed a +86 Da LdtMt2 adduct; also recorded: fragmentation to a M+86 Da 3-hydroxybutyryl group; DacB2 adduct formation ([3]; 20° C., pH 7.0): formed intact adducts; DacB2 adduct stability (in words) [3, 7]: partially hydrolyzed; inhibitor retained on DacB2 (percent bound) ([3]; 24 h after removal of free drug, 20° C., pH 7.0): 86%; loss of drug from DacB2 adduct ([3]; 24 h after washing away free drug): 14% |
| C[C@@H](O)[C@H]1C(=O)N2C(C(=O)O)=C(SC3CN(c4nc5ccccc5s4)C3)S[C@H]12 [Compound T423, (5R,6S)-3-((1-(benzo[d]thiazol-2-yl)azetidin-3-yl)thio)-6-((R)-1-hydroxyethyl)-7-oxo-4-thia-1-azabicyclo[3.2.0]hept-2-ene-2-carboxylic acid] | 8 | 64 (≈ 147 µM) | 2 | increase of MIC relative to T405 [1]: 16 fold |
| C[C@@H](O)[C@H]1C(=O)N2C(C(=O)O)=C(S[C@@H]3CCNC3)S[C@H]12 [Compound T425, (5R,6S)-6-((R)-1-hydroxyethyl)-7-oxo-3-(((R)-pyrrolidin-3-yl)thio)-4-thia-1-azabicyclo[3.2.0]hept-2-ene-2-carboxylic acid] | 0.5 | 2 (≈ 6.32 µM) | 0.25 | MIC against Mab ([2]; Mab ATCC 19977): 1 µg/mL (≈ 3.16 µM) |
| C[C@@H](O)[C@H]1C(=O)N2C(C(=O)O)=C(SCC3CCNCC3)S[C@H]12 [Compound T429, (5R,6S)-6-((R)-1-hydroxyethyl)-7-oxo-3-((piperidin-4-ylmethyl)thio)-4-thia-1-azabicyclo[3.2.0]hept-2-ene-2-carboxylic acid] | 0.5 | 4 (≈ 11.6 µM) | 0.25 | – |
| C[C@@H](O)[C@H]1C(=O)N2C(C(=O)O)=C(SC3CNC3)S[C@H]12 [Compound T422, (5R,6S)-3-(azctidin-3-ylthio)-6-((R)-1-hydroxyethyl)-7-oxo-4-thia-1-azabicyclo[3.2.0]hept-2-ene-2-carboxylic acid] | – | – | 0.5 | MIC [1]: 0.5 µg/mL; weaker activity (MIC) relative to T405 ([2]; Mab ATCC 19977): 2 fold; MIC ([2]; ATCC19977, 72 h): 4 µg/mL (≈ 13.2 µM) |
| CCN1CC(SC2=C(C(=O)O)N3C(=O)[C@H]([C@@H](C)O)[C@H]3S2)C1 [Compound T421, (5R,6S)-3-((1-ethylazetidin-3-yl)thio)-6-((R)-1-hydroxyethyl)-7-oxo-4-thia-1-azabicyclo[3.2.0]hept-2-ene-2-carboxylic acid] | 1 | 4 (≈ 12.1 µM) | 0.5 | – |
